Results on two compounds are retold here after the NIST ThermoML archive (doi:10.1016/j.jct.2010.04.015).

The conditions of the data set: Liquid, Closed cell (Static) method.

By vapor or sublimation pressure is commonly meant the equilibrium pressure above the liquid or solid.

Numbers after ± are expanded uncertainties.

Consider `CN(C)CCCO` [3-dimethylamino-1-propanol], for which the “vapor or sublimation pressure” value was 0.007 ± 0.0003 kPa (283.15 K); 0.016 ± 0.0006 kPa (293.14 K); 0.0346 ± 0.0009 kPa (303.09 K); 0.0707 ± 0.0014 kPa (313.08 K); 0.1418 ± 0.0021 kPa (323.28 K); 0.2604 ± 0.0031 kPa (333.12 K). The “vapor or sublimation pressure” value (343.12 K) is reported as 0.4742 ± 0.005 kPa, the “vapor or sublimation pressure” value (363.17 K) is 1.419 ± 0.01 kPa and the “vapor or sublimation pressure” value (373.1 K) stood at 2.315 ± 0.012 kPa.
As to `CC(C)(N)CO` [2-amino-2-methylpropan-1-ol], the “vapor or sublimation pressure” value was found to be 0.0415 ± 0.001 kPa (293.29 K); 0.0975 ± 0.0019 kPa (303.35 K); 0.2191 ± 0.0028 kPa (313.24 K); 0.4556 ± 0.0048 kPa (323.25 K); 0.8745 ± 0.0082 kPa (332.57 K); 1.659 ± 0.011 kPa (343.18 K). For the same compound, the “vapor or sublimation pressure” value reads like this: (353.17 K) 2.933 ± 0.014 kPa; (363.1 K) 4.987 ± 0.019 kPa; (373 K) 8.142 ± 0.025 kPa.
